Patent US20020035061A1, “COMPOSITIONS AND METHODS FOR TREATING INFECTIONS USING CATIONIC PEPTIDES ALONE OR IN COMBINATION WITH ANTIBIOTICS” (priority 1996, published 2002)

How the values were obtained:
Experiment in all cases: microbe, parasite or virus in culture
Type in all cases: cell-based
[1] = test system: microorganisms with acquired resistance
S. aureus = S. aureus SA25
[2] = test system: inherently resistant microorganisms; settings: B. cepacia
bacterial isolates = test system: bacterial isolates
[3] = test system: vancomycin / teicoplanin resistant enterococci; settings: for Vancomycin MIC + Peptide: in combination with the labelled peptide; for Peptide MIC + Vancomycin: in combination with vancomycin

Sequence: KWKSFIKKLTSAAKKVLTTGLPALIS [MBI 29A3]
- Gentamicin MIC + Peptide ([1]; A. baumannii ABI002): 4 µg/mL
- Peptide MIC + Gentamicin ([1]; A. baumannii ABI002): 1 µg/mL
- Peptide MIC Alone ([1]; A. baumannii ABI002, Gentamicin section): 2 µg/mL
- Peptide MIC + Tobramycin ([1]; E. coli EC0006): 2 µg/mL
- Tobramycin MIC + Peptide ([1]; E. coli EC0006): 2 µg/mL
- Peptide MIC Alone ([1]; E. coli EC0006, Tobramycin section): 4 µg/mL
- Peptide MIC + Tobramycin ([1]; P. aeruginosa PA022): 0.25 µg/mL
- Tobramycin MIC + Peptide ([1]; P. aeruginosa PA022): 4 µg/mL
- Peptide MIC Alone ([1]; P. aeruginosa PA022, Tobramycin section): 4 µg/mL
- Gentamicin MIC + Peptide ([1]; P. aeruginosa PA041): 4 µg/mL
- Peptide MIC + Gentamicin ([1]; P. aeruginosa PA041): 4 µg/mL
- Ciprofloxacin MIC + Peptide ([1]; P. aeruginosa PA41): 0.5 µg/mL
- Peptide MIC + Ciprofloxacin ([1]; P. aeruginosa PA41): 4 µg/mL
- Peptide MIC Alone ([1]; P. aeruginosa PA41, Ciprofloxacin section): 8 µg/mL
- Peptide MIC Alone ([1]; P. aeruginosa PA041, Gentamicin section): 8 µg/mL
- Peptide MIC ([1]; S. aureus, combination with Mupirocin, in µg/mL): 4
- Peptide MIC + Tobramycin ([1]; S. maltophilia SMA027): 16 µg/mL
- Tobramycin MIC + Peptide ([1]; S. maltophilia SMA027): 4 µg/mL
- Peptide MIC Alone ([1]; S. maltophilia SMA027, Tobramycin section): 32 µg/mL
- Peptide MIC + Tobramycin ([1]; S. maltophilia SMA029): 4 µg/mL
- Tobramycin MIC + Peptide ([1]; S. maltophilia SMA029): 4 µg/mL
- Peptide MIC Alone ([1]; S. maltophilia SMA029, Tobramycin section): 16 µg/mL
- FIC ([1]; peptide + Tobramycin, E. coli EC0006): 0.75
- Ciprofloxacin MIC + Peptide (S. aureus): 1 µg/mL
- Peptide MIC + Ciprofloxacin (S. aureus): 0.5 µg/mL
- Peptide MIC + Amikacin [2]: 32 µg/mL
- Peptide MIC Alone ([2]; Amikacin section): >128 µg/mL
- Peptide MIC Alone (bacterial isolates; 1. Amikacin, B. cepacia BC003): >128 µg/mL
- Peptide MIC Alone (bacterial isolates; 1. Amikacin, B. cepacia BC005): >128 µg/mL
- Peptide MIC Alone (bacterial isolates; 1. Amikacin, E. faecium EFM004): 8 µg/mL
- Peptide MIC Alone (bacterial isolates; 1. Amikacin, S. maltophilia SMA036): 64 µg/mL
- Peptide MIC Alone (bacterial isolates; 1. Amikacin, S. maltophilia SMA063): 8 µg/mL
- Peptide MIC Alone (bacterial isolates; 1. Amikacin, S. maltophilia SMA064): 8 µg/mL
- Peptide MIC Alone (bacterial isolates; 4. Gentamicin, S. maltophilia SMA019): 2 µg/mL
- Peptide MIC Alone (bacterial isolates; 4. Gentamicin, S. maltophilia SMA021): 2 µg/mL
- Amikacin MIC + Peptide (bacterial isolates; B. cepacia BC003): 8 µg/mL
- Peptide MIC + Amikacin (bacterial isolates; B. cepacia BC003): 64 µg/mL
- Amikacin MIC + Peptide (bacterial isolates; B. cepacia BC005): 32 µg/mL
- Peptide MIC + Amikacin (bacterial isolates; B. cepacia BC005): 32 µg/mL
- Peptide MIC + Vancomycin (bacterial isolates; E. faecalis EFS003): 2 µg/mL
- Vancomycin MIC + Peptide (bacterial isolates; E. faecalis EFS003): 2 µg/mL
- Peptide MIC + Vancomycin (bacterial isolates; E. faecalis EFS005): 1 µg/mL
- Vancomycin MIC + Peptide (bacterial isolates; E. faecalis EFS005): 4 µg/mL
- Peptide MIC + Vancomycin (bacterial isolates; E. faecalis EFS011): 8 µg/mL
- Vancomycin MIC + Peptide (bacterial isolates; E. faecalis EFS011): 4 µg/mL
- Peptide MIC + Vancomycin (bacterial isolates; E. faecalis EFS014): 0.5 µg/mL
- Vancomycin MIC + Peptide (bacterial isolates; E. faecalis EFS014): 1 µg/mL
- Amikacin MIC + Peptide (bacterial isolates; E. faecium EFM004): 8 µg/mL
- Peptide MIC + Amikacin (bacterial isolates; E. faecium EFM004): 4 µg/mL
- Peptide MIC + Vancomycin (bacterial isolates; E. faecium EFM006): 2 µg/mL
- Vancomycin MIC + Peptide (bacterial isolates; E. faecium EFM006): 4 µg/mL
- Mupirocin MIC + Peptide (bacterial isolates; P. aeruginosa PA2): 0.1 µg/mL
- Peptide MIC + Mupirocin (bacterial isolates; P. aeruginosa PA2): 16 µg/mL
- Mupirocin MIC + Peptide (bacterial isolates; P. aeruginosa PA3): 0.1 µg/mL
- Peptide MIC + Mupirocin (bacterial isolates; P. aeruginosa PA3): 8 µg/mL
- Peptide MIC + Tobramycin (bacterial isolates; P. aeruginosa PA022): 0.25 µg/mL
- Tobramycin MIC + Peptide (bacterial isolates; P. aeruginosa PA022): 4 µg/mL
- Ciprofloxacin MIC + Peptide (bacterial isolates; P. aeruginosa PA24): 16 µg/mL
- Peptide MIC + Ciprofloxacin (bacterial isolates; P. aeruginosa PA24): 0.125 µg/mL
- Peptide MIC + Tobramycin (bacterial isolates; P. aeruginosa PA028): 0.125 µg/mL
- Tobramycin MIC + Peptide (bacterial isolates; P. aeruginosa PA028): 16 µg/mL
- Peptide MIC + Tobramycin (bacterial isolates; P. aeruginosa PA029): 0.125 µg/mL
- Tobramycin MIC + Peptide (bacterial isolates; P. aeruginosa PA029): 16 µg/mL
- Ciprofloxacin MIC + Peptide (bacterial isolates; P. aeruginosa PA41): 0.5 µg/mL
- Peptide MIC + Ciprofloxacin (bacterial isolates; P. aeruginosa PA41): 4 µg/mL
- Ciprofloxacin MIC + Peptide (bacterial isolates; S. aureus SA10): 16 µg/mL
- Peptide MIC + Ciprofloxacin (bacterial isolates; S. aureus SA10): 0.5 µg/mL
- Ciprofloxacin MIC + Peptide (bacterial isolates; S. aureus SA25): 2 µg/mL
- Peptide MIC + Ciprofloxacin (bacterial isolates; S. aureus SA25): 0.125 µg/mL
- Gentamicin MIC + Peptide (bacterial isolates; S. maltophilia SMA019): 16 µg/mL
- Peptide MIC + Gentamicin (bacterial isolates; S. maltophilia SMA019): 0.125 µg/mL
- Gentamicin MIC + Peptide (bacterial isolates; S. maltophilia SMA021): 16 µg/mL
- Peptide MIC + Gentamicin (bacterial isolates; S. maltophilia SMA021): 0.125 µg/mL
- Peptide MIC + Tobramycin (bacterial isolates; S. maltophilia SMA029): 4 µg/mL
- Tobramycin MIC + Peptide (bacterial isolates; S. maltophilia SMA029): 4 µg/mL
- Peptide MIC + Tobramycin (bacterial isolates; S. maltophilia SMA030): 4 µg/mL
- Tobramycin MIC + Peptide (bacterial isolates; S. maltophilia SMA030): 4 µg/mL
- Amikacin MIC + Peptide (bacterial isolates; S. maltophilia SMA036): 32 µg/mL
- Peptide MIC + Amikacin (bacterial isolates; S. maltophilia SMA036): 16 µg/mL
- Amikacin MIC + Peptide (bacterial isolates; S. maltophilia SMA063): 16 µg/mL
- Peptide MIC + Amikacin (bacterial isolates; S. maltophilia SMA063): 4 µg/mL
- Amikacin MIC + Peptide (bacterial isolates; S. maltophilia SMA064): 16 µg/mL
- Peptide MIC + Amikacin (bacterial isolates; S. maltophilia SMA064): 4 µg/mL
- Mupirocin MIC + Peptide (bacterial isolates; S. marcescens SBSM1): 100 µg/mL
- Peptide MIC + Mupirocin (bacterial isolates; S. marcescens SBSM1): 16 µg/mL
- Mupirocin MIC + Peptide (bacterial isolates; S. marcescens SBSM2): 100 µg/mL
- Peptide MIC + Mupirocin (bacterial isolates; S. marcescens SBSM2): 64 µg/mL
- FIC (bacterial isolates; peptide + Amikacin, B. cepacia BC003): 0.50
- FIC (bacterial isolates; peptide + Amikacin, B. cepacia BC005): 0.38
- FIC (bacterial isolates; peptide + Amikacin, E. faecium EFM004): 0.56
- FIC (bacterial isolates; peptide + Amikacin, S. maltophilia SMA036): 0.38
- FIC (bacterial isolates; peptide + Amikacin, S. maltophilia SMA063): 0.56
- FIC (bacterial isolates; peptide + Amikacin, S. maltophilia SMA064): 0.56
- FIC (bacterial isolates; peptide + Ciprofloxacin, P. aeruginosa PA24): 0.50
- FIC (bacterial isolates; peptide + Ciprofloxacin, P. aeruginosa PA41): 0.63
- FIC (bacterial isolates; peptide + Ciprofloxacin, S. aureus SA10): 0.75
- FIC (bacterial isolates; peptide + Ciprofloxacin, S. aureus SA25): 0.63
- FIC (bacterial isolates; peptide + Mupirocin, P. aeruginosa PA2): 0.50
- FIC (bacterial isolates; peptide + Mupirocin, P. aeruginosa PA3): 0.50
- FIC (bacterial isolates; peptide + Mupirocin, S. marcescens SBSM1): 0.16
- FIC (bacterial isolates; peptide + Mupirocin, S. marcescens SBSM2): 0.35
- FIC (bacterial isolates; peptide + Vancomycin, E. faecalis EFS003): 0.56
- FIC (bacterial isolates; peptide + Vancomycin, E. faecalis EFS005): 0.28
- FIC (bacterial isolates; peptide + Vancomycin, E. faecalis EFS011): 0.50
- FIC (bacterial isolates; peptide + Vancomycin, E. faecalis EFS014): 0.52
- FIC (bacterial isolates; peptide + Vancomycin, E. faecium EFM006): 0.52
- Amikacin MIC + Peptide ([3]; E. faecium EFM004): 8 µg/mL
- Peptide MIC + Amikacin ([3]; E. faecium EFM004): 4 µg/mL
- Amikacin MIC + Peptide ([3]; E. faecium EFM020): 16 µg/mL
- Peptide MIC + Amikacin ([3]; E. faecium EFM020): 2 µg/mL
- Vancomycin MIC + Peptide ([3]; E. faecalis EFS005): 1 µg/mL
- Vancomycin MIC + Peptide ([3]; E. faecalis EFS011): 4 µg/mL
- Vancomycin MIC + Peptide ([3]; E. faecalis EFS014): 1 µg/mL
- Vancomycin MIC + Peptide ([3]; E. faecium EFM006): 4 µg/mL
- Peptide MIC + Vancomycin ([3]; E. faecalis EFS005): 4 µg/mL
- Peptide MIC + Vancomycin ([3]; E. faecalis EFS011): 8 µg/mL
- Peptide MIC + Vancomycin ([3]; E. faecalis EFS014): 0.5 µg/mL
- Peptide MIC + Vancomycin ([3]; E. faecium EFM006): 2 µg/mL
